DBAASP
Converted amounts (≈) assume the structure as drawn.

How the values were obtained:
Assay in all cases: ≥ marks a high value that may be exact or a test limit, other limits are often not marked, values filed in µg/mL are converted to µM
[1] = test system: Escherichia coli ATCC 25922
[2] = test system: Staphylococcus aureus ATCC 29213
[3] = test system: Pseudomonas aeruginosa ATCC 27853
[4] = test system: Staphylococcus epidermidis ATCC 12228
Pseudomonas aeruginosa = test system: Pseudomonas aeruginosa

Row | MIC [1] | MIC [2] | MIC [3] | MIC [4] | MIC (Pseudomonas aeruginosa) | SMILES
1 | 5 µM (≈ 8.74 µg/mL) | > 40 µM |  |  |  | CC[C@H](C)[C@H](NC(=O)[C@H](CCCN=C(N)N)NC(=O)[C@H](CCC(N)=O)NC(=O)[C@H](CCC(N)=O)NC(=O)[C@@H](NC(=O)[C@H](CCCN=C(N)N)NC(=O)[C@H](CCCCN)NC(=O)[C@@H](N)Cc1ccccc1)[C@@H](C)CC)C(=O)N[C@@H](CCCCN)C(=O)N[C@@H](CC(=O)O)C(=O)N[C@@H](Cc1ccccc1)C(=O)N[C@@H](CC(C)C)C(=O)N[C@@H](CCCN=C(N)N)C(=O)O [FKRIQQRIKDFLR]
2 | > 80 µM |  |  | 10 µM (≈ 27.3 µg/mL) |  | CC[C@H](C)[C@H](NC(=O)CN)C(=O)N[C@@H](CCCCN)C(=O)N[C@@H](CCCCN)C(=O)N[C@@H](Cc1c[nH]c2ccccc12)C(=O)N[C@@H](CC(C)C)C(=O)N[C@@H](Cc1cnc[nH]1)C(=O)N[C@@H](CO)C(=O)N1CCC[C@H]1C(=O)N[C@@H](CCCCN)C(=O)N[C@@H](CCCCN)C(=O)N[C@@H](Cc1ccccc1)C(=O)NCC(=O)N[C@@H](CCCCN)C(=O)N[C@@H](CCCCN)C(=O)N[C@@H](Cc1ccccc1)C(=O)N1CCC[C@H]1C(=O)N[C@@H](CCCCN)C(=O)N[C@@H](CCCCN)C(=O)N[C@H](C(=O)N[C@@H](CCSC)C(=O)N[C@@H](CC(N)=O)C(=O)N[C@@H](CO)C(N)=O)[C@@H](C)CC [GIKKWLHSPKKFGKKFPKKIMNS]
3 |  |  |  |  | 5.13 µM (≈ 12.5 µg/mL) | CC[C@H](C)[C@H](NC(=O)[C@H](Cc1ccccc1)NC(=O)[C@H](CO)NC(=O)[C@H](CC(N)=O)NC(=O)[C@H](Cc1c[nH]c2ccccc12)NC(=O)[C@@H](N)CCCCN)C(=O)N[C@@H](CCCCN)C(=O)N[C@@H](CCCCN)C(=O)N[C@@H](CC(C)C)C(=O)N[C@H](C(=O)N[C@@H](CO)C(=O)N[C@@H](CCCCN)C(=O)N[C@@H](Cc1ccccc1)C(=O)N[C@@H](CC(C)C)C(=O)N[C@@H](Cc1cnc[nH]1)C(=O)N[C@@H](CO)C(=O)N[C@@H](C)C(=O)N[C@@H](CCCCN)C(=O)N[C@@H](CCCCN)C(=O)N[C@@H](Cc1ccccc1)C(N)=O)[C@@H](C)O [KWNSFIKKLTSKFLHSAKKF]
4 | 10 µM (≈ 17.8 µg/mL) | 10 µM (≈ 17.8 µg/mL) |  |  |  | CC(C)C[C@H](NC(=O)[C@H](CC(C)C)NC(=O)[C@H](CCCCN)NC(=O)[C@H](CCCCN)NC(=O)[C@H](CC(C)C)NC(=O)[C@H](CC(C)C)NC(=O)[C@H](CCCCN)NC(=O)[C@H](CC(C)C)NC(=O)[C@H](CC(C)C)NC(=O)[C@H](CCCCN)NC(=O)[C@H](CCCCN)NC(=O)[C@@H](N)CC(C)C)C(=O)N[C@@H](CCCCN)C(=O)N[C@@H](C)C(=O)N[C@@H](C)C(=O)NCC(=O)O [LKKLLKLLKKLLKAAG]
5 | > 496 µM | > 496 µM |  |  |  | CC[C@H](C)[C@H](NC(=O)[C@@H](NC(=O)[C@H](C)NC(=O)[C@H](CCCN=C(N)N)NC(=O)[C@H](CC(N)=O)NC(=O)[C@H](Cc1ccccc1)NC(=O)[C@H](CO)NC(=O)[C@@H](N)C(C)C)C(C)C)C(=O)N[C@@H](Cc1cnc[nH]1)C(=O)N[C@@H](CO)C(=O)N[C@@H](CC(C)C)C(=O)N[C@@H](CC(C)C)C(=O)NCC(N)=O [VSFNRAVIHSLLG]

Second part, the compound before the results:

Row | SMILES | MIC [1] | MIC [2] | MIC [3] | MIC [4] | MIC (Pseudomonas aeruginosa)
6 | CC[C@H](C)[C@H](NC(=O)[C@H](CCSC)NC(=O)[C@H](C)NC(=O)[C@@H]1CCCN1C(=O)[C@@H](NC(=O)[C@@H](NC(=O)[C@H](CCCCN)NC(=O)[C@@H](NC(=O)[C@H](CC(C)C)NC(=O)CNC(=O)CNC(=O)[C@H](CC(C)C)NC(=O)[C@@H](N)Cc1ccccc1)[C@@H](C)CC)[C@@H](C)CC)C(C)C)C(=O)N[C@@H](CS)C(=O)N[C@@H](C)C(=O)N[C@H](C(=O)N[C@H](C(=O)N[C@@H](CCCCN)C(=O)N[C@@H](CCCCN)C(=O)O)[C@@H](C)O)C(C)C [FLGGLIKIVPAMICAVTKK] | 128 µM (≈ 256 µg/mL) | 63.9 µM (≈ 128 µg/mL) | 63.9 µM (≈ 128 µg/mL) |  | 
7 | CC[C@H](C)[C@H](NC(=O)CN)C(=O)N[C@@H](CCCCN)C(=O)N[C@@H](CCCCN)C(=O)N[C@@H](Cc1c[nH]c2ccccc12)C(=O)N1CCC[C@H]1C(=O)N[C@@H](Cc1cnc[nH]1)C(=O)N[C@@H](CCCCN)C(=O)N1CCC[C@H]1C(=O)N[C@@H](CCCCN)C(=O)N[C@@H](CCCCN)C(=O)N[C@@H](Cc1ccccc1)C(=O)NCC(=O)N[C@@H](CCCCN)C(=O)N[C@@H](CCCCN)C(=O)N[C@@H](Cc1ccccc1)C(=O)N[C@H](C(=O)N[C@@H](CCCCN)C(=O)N[C@@H](CCCCN)C(=O)N[C@H](C(=O)N[C@@H](CCCCN)C(=O)N[C@@H](CC(N)=O)C(=O)N[C@@H](CO)C(N)=O)[C@@H](C)CC)C(C)C [GIKKWPHKPKKFGKKFVKKIKNS] | 40 µM (≈ 110 µg/mL) |  |  | 10 µM (≈ 27.5 µg/mL) | 
8 | CC[C@H](C)[C@H](NC(=O)CN)C(=O)N[C@@H](CCCCN)C(=O)N[C@@H](CCCCN)C(=O)N[C@@H](Cc1c[nH]c2ccccc12)C(=O)N1CCC[C@H]1C(=O)N[C@@H](Cc1cnc[nH]1)C(=O)N[C@@H](CO)C(=O)N1CCC[C@H]1C(=O)N[C@@H](CCCCN)C(=O)N[C@@H](CCCCN)C(=O)N[C@@H](Cc1ccccc1)C(=O)NCC(=O)N[C@@H](CCCCN)C(=O)N[C@@H](CCCCN)C(=O)N[C@@H](Cc1ccccc1)C(=O)N[C@H](C(=O)N[C@@H](CCCCN)C(=O)N[C@@H](CCCCN)C(=O)N[C@H](C(=O)N[C@@H](CCSC)C(=O)N[C@@H](CC(N)=O)C(=O)N[C@@H](CO)C(N)=O)[C@@H](C)CC)C(C)C [GIKKWPHSPKKFGKKFVKKIMNS] | 10 µM (≈ 27.1 µg/mL) |  |  | 10 µM (≈ 27.1 µg/mL) | 
9 | CC(=O)N[C@@H](CCCCN)C(=O)N[C@@H](CC(C)C)C(=O)N[C@@H](CC(C)C)C(=O)N[C@@H](CCCCN)C(=O)N[C@@H](CC(C)C)C(=O)N[C@@H](CC(C)C)C(=O)N[C@@H](CCCCN)C(=O)N[C@@H](CCCCN)C(=O)N[C@@H](CC(C)C)C(=O)N[C@@H](CC(C)C)C(=O)N[C@@H](CCCCN)C(=O)N[C@@H](CC(C)C)C(=O)N1CCC[C@H]1C(=O)N[C@@H](CCCCN)C(N)=O [KLLKLLKKLLKLPK] | 14.1 µM (≈ 24.3 µg/mL) | 10 µM (≈ 17.2 µg/mL) |  |  | 
10 | CC[C@H](C)[C@H](NC(=O)[C@H](C)NC(=O)[C@H](CCCCN)NC(=O)[C@@H](N)CCC(N)=O)C(=O)N[C@@H](CCCN=C(N)N)C(=O)N[C@H](C(=O)N[C@@H](CCCN=C(N)N)C(=O)N[C@@H](CC(C)C)C(=O)N[C@@H](CO)C(=O)N[C@@H](C)C(=O)O)C(C)C [QKAIRVRLSA] | 7.01 µM (≈ 8 µg/mL) | > 56.1 µM | 7.01 µM (≈ 8 µg/mL) |  | 
11 | CC[C@H](C)[C@H](NC(=O)[C@H](CCCCN)NC(=O)[C@H](CCCCN)NC(=O)[C@@H](N)CCC(N)=O)C(=O)N[C@@H](CCCN=C(N)N)C(=O)N[C@@H](C)C(=O)N[C@@H](CCCN=C(N)N)C(=O)N[C@@H](CC(C)C)C(=O)N[C@@H](CO)C(=O)N[C@@H](C)C(=O)O [QKKIRARLSA] | > 54.7 µM | > 54.7 µM | > 54.7 µM |  | 
12 | NC(=O)[C@H](Cc1ccccc1)NC(=O)[C@H](Cc1ccccc1)NC(=O)[C@H](Cc1ccccc1)NC(=O)[C@H](Cc1ccccc1)NC(=O)[C@@H]1CCCN1C(=O)[C@H](CCCN=C(N)N)NC(=O)[C@@H]1CCCN1C(=O)[C@H](CCCN=C(N)N)NC(=O)[C@@H]1CCCN1C(=O)[C@H](CCCN=C(N)N)NC(=O)[C@@H]1CCCN1C(=O)[C@H](CCCN=C(N)N)NC(=O)[C@@H](N)CCCN=C(N)N [RRPRPRPRPFFFF] | 80 µM (≈ 142 µg/mL) | 20 µM (≈ 35.5 µg/mL) | 40 µM (≈ 71 µg/mL) |  | 
13 | CC(C)[C@H](NC(=O)[C@H](Cc1c[nH]c2ccccc12)NC(=O)[C@H](Cc1c[nH]c2ccccc12)NC(=O)[C@@H](N)CCCN=C(N)N)C(=O)N[C@@H](C)C(=O)N[C@@H](Cc1c[nH]c2ccccc12)C(=O)N[C@@H](CCCN=C(N)N)C(=O)N[C@@H](CC(N)=O)C(=O)N[C@@H](CCCN=C(N)N)C(=O)O [RWWVAWRNR] | 47 µM (≈ 62.5 µg/mL) | 94 µM (≈ 125 µg/mL) |  |  | 
